Structures are written as SMILES.

From US20240174744A1, “METHODS OF TREATMENT USING PROTEIN BINDERS TO IRHOM2 EPITOPES” (SCIRHOM GMBH, priority 2021, published 2024) come the findings set out here.

For this assay, the system named is PMA-induced release of HB-EGF from THP-1 cells. The assay can be described thus: ELISA-based HB-EGF release assay, PMA-stimulated THP-1 cells. Conditions: Homo sapiens, murine (m) and chimeric (ch) antibodies 3 μg/ml, Batimastat 10 μM, PMA 25 ng/ml, 6 hours. The format is cell-based. Here is the method:
In the following study, ELISA-based HB-EGF release assays were performed to analyze the inhibitory effects of the antibodies of the present disclosure on PMA-induced release of endogenous HB-EGF from human THP-1 monocytic cells.
In brief, on day 1, Nunc black MaxiSorp® 96-well plates (Thermo Fisher Scientific, USA) were coated for 7 hours with 100 μl per well of rat anti-human HB-EGF capture antibody (provided as part of the DuoSet ELISA kit) at 2 μg/ml TBS at room temperature. Capture antibody solution was removed and MaxiSorp® plates were blocked with 300 μl per well of TBS, 1% BSA at room temperature for 3 hours. […]
Subsequently, cells (except those for unstimulated controls) were stimulated with 20 μl per well of PMA (Sigma-Aldrich, USA) at 150 ng/ml in growth medium for a final concentration of 25 ng/ml at 37° C., 5% CO2 for 6 hours. […] Using an infinite M1000 (Tecan Group, Switzerland) microplate reader, the fluorescence of each well was collected at an excitation wavelength of 435 nm and an emission wavelength of 555 nm.

`CNC(=O)[C@H](Cc1ccccc1)NC(=O)[C@H](CC(C)C)[C@H](CSc1cccs1)C(=O)NO` [Batimastat] registered an inhibition at 10 µM of 98.9%.
